Type in all cases: binding
Test [1] deals with T1, Recombinant human integrin αVβ8 (Homo sapiens, UniProt P06756+P26012).
T1 construct: purchased R&D Systems 4135-AV
Kind of test: Solid Phase Receptor Assay for αVβ8 function. The settings on record: plate-bound human LAP; read-out: αVβ8 SPRA IC50.

For test [2], the target named is T2, Recombinant human integrin αVβ5 (Homo sapiens, UniProt P06756+P18084).
T2 construct: purchased R&D Systems 2528-AV
Kind of test: Solid Phase Receptor Assay (SPRA) for αVβ5 function. The settings on record: plate-bound human vitronectin.

Test [3] deals with T3, Recombinant human integrin α5β1 (Homo sapiens, UniProt P05556+P08648).
T3 construct: purchased R&D Systems 3230-A5
Kind of test: Solid Phase Receptor Assay (SPRA) for α5β1 function. The settings on record: plate-bound human fibronectin.

Test [4] addresses T4, Recombinant human integrin αVβ3 (Homo sapiens, UniProt P05106+P06756).
T4 construct: purchased R&D Systems 3050-AV
Kind of test: Solid Phase Receptor Assay for αVβ3 function. The settings on record: plate-bound human vitronectin; read-out: αVβ3 SPRA IC50.

Where a name gives a salt, the structure may show the parent alone.

As a reminder, the IC50 is the concentration needed to halve the response being measured.

T3 sequence (P08648 42-995 limits assumed): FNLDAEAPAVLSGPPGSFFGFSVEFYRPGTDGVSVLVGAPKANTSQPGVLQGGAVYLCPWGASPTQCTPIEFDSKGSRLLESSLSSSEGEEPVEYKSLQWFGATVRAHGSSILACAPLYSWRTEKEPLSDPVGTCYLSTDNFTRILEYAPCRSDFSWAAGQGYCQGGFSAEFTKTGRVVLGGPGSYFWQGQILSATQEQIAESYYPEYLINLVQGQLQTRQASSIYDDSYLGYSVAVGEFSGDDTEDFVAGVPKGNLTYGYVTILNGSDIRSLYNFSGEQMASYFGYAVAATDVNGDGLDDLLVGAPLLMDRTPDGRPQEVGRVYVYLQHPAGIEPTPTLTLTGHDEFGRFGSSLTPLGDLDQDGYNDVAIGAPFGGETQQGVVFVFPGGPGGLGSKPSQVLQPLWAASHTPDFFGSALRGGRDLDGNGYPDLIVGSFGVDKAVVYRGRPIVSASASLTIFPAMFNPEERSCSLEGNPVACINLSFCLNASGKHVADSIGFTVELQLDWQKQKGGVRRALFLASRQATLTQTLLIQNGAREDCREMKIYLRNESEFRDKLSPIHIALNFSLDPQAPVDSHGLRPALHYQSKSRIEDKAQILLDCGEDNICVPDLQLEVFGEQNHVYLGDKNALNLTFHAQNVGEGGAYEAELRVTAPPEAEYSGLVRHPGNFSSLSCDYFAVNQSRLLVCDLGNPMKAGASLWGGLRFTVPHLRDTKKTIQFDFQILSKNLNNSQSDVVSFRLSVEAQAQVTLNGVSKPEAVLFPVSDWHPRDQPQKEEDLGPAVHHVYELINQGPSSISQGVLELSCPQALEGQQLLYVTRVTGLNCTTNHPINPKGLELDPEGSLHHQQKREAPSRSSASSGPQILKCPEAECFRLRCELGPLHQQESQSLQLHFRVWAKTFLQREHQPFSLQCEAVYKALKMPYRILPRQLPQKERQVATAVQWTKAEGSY
T3 sequence (P05556 21-728 limits assumed): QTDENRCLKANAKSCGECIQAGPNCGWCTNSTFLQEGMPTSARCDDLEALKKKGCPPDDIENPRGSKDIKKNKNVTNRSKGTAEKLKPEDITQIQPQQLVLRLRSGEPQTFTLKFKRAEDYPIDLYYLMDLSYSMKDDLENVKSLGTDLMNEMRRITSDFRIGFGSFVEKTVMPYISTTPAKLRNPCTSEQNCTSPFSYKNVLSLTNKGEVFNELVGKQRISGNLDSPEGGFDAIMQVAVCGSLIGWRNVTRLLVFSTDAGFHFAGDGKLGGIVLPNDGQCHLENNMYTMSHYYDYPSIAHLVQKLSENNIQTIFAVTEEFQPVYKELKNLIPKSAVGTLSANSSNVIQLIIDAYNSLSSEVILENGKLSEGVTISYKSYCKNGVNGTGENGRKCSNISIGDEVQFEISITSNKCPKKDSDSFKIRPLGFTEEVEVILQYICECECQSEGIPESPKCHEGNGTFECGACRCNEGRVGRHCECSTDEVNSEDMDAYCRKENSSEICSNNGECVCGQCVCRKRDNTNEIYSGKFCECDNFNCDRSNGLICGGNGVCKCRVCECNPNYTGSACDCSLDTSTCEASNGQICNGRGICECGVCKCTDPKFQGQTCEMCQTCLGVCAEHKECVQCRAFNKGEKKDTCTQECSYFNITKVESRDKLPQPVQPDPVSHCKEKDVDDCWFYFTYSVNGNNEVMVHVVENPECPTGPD
T1 sequence (P06756 31-992 limits assumed): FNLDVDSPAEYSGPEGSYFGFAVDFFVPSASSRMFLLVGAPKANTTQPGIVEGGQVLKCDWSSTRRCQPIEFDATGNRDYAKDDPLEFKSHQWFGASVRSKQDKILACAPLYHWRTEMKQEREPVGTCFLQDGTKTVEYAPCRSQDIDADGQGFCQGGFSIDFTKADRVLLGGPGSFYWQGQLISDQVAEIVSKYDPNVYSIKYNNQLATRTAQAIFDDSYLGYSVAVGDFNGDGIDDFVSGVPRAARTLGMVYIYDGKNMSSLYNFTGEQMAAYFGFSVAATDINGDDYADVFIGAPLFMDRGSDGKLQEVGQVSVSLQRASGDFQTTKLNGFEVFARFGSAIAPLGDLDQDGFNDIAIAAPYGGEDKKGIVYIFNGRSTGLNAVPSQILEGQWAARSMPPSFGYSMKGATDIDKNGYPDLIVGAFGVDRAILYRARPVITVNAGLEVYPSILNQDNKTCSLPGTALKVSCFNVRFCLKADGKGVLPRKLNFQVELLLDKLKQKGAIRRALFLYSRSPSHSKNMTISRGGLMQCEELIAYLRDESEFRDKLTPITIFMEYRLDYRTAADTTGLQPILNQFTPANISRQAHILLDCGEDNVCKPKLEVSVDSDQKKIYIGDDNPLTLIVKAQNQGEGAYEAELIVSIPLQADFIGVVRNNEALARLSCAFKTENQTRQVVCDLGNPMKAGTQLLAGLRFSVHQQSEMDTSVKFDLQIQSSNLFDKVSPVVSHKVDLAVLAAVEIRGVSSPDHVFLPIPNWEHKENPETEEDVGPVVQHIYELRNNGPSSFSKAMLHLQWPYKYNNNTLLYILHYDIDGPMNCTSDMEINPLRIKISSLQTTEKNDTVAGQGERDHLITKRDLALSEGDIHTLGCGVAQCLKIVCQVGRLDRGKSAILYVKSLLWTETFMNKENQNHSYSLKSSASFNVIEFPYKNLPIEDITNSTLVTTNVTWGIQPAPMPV
T1 sequence (P26012 43-684 limits assumed): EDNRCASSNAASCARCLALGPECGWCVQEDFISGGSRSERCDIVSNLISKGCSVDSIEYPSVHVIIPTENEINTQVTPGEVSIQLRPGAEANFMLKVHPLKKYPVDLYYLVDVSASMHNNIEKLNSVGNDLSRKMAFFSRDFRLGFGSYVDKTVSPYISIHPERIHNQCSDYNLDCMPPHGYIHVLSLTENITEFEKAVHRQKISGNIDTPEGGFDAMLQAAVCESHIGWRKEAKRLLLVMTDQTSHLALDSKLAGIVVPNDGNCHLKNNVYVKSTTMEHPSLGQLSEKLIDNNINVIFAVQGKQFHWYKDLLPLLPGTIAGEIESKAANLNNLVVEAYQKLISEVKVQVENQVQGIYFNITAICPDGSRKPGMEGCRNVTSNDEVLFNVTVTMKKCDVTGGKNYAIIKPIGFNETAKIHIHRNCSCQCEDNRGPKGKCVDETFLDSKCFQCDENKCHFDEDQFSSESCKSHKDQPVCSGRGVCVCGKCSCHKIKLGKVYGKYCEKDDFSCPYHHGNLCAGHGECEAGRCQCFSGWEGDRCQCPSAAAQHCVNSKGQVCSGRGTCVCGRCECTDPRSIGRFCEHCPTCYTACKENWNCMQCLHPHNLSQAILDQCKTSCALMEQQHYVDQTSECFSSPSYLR
T2 sequence (P06756 31-992 limits assumed): as the sequence (P06756 31-992 limits assumed) above
T2 sequence (P18084 24-719 limits assumed): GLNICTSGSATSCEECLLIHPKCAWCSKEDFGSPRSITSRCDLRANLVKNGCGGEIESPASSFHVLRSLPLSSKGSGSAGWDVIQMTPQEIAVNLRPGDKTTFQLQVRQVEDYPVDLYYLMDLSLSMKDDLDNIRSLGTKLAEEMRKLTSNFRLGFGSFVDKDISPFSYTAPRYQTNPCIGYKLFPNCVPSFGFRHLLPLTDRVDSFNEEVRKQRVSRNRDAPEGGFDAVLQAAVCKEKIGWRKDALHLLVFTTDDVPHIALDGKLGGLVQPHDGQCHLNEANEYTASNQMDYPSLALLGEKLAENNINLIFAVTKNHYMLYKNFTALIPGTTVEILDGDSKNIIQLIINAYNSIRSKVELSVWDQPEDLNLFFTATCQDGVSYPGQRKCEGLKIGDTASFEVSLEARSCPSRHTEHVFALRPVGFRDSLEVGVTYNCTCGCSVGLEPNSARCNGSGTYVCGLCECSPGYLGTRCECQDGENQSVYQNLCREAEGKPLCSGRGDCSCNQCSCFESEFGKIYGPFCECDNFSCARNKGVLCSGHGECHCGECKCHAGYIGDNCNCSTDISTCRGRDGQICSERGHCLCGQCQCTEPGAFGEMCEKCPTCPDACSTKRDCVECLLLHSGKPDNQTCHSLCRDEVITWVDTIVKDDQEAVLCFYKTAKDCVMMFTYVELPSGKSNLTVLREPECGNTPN
T4 sequence (P06756 31-992 limits assumed): as the sequence (P06756 31-992 limits assumed) above
T4 sequence (P05106 27-718 limits assumed): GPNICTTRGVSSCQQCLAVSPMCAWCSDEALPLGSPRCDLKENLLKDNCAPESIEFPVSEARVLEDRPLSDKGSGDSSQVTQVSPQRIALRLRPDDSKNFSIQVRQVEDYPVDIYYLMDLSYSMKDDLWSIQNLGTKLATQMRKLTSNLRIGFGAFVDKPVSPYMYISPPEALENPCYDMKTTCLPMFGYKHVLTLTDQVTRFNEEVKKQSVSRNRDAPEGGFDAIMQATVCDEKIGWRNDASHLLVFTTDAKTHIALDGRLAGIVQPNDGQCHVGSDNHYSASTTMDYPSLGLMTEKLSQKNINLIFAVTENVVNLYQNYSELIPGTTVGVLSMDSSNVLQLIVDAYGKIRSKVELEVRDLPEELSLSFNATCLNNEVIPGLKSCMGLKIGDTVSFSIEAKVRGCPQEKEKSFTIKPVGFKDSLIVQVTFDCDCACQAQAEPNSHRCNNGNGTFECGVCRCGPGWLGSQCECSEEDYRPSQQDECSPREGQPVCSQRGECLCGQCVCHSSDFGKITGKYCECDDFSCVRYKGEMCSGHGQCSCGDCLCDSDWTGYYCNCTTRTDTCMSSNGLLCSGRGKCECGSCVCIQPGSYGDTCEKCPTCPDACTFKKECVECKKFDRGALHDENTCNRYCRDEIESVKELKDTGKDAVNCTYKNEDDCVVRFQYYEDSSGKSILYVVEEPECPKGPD

In the case of `COc1ccc(C2=CCOCC2)cc1[C@@H](CC(=O)O)Cc1csc(CCCc2ccc3c(n2)NCCC3)n1` [Example 37B, (R)-3-(5-(3,6-dihydro-2H-pyran-4-yl)-2-methoxyphenyl)-4-(2-(3-(5,6,7,8-tetrahydro-1,8-naphthyridin-2-yl)propyl)thiazol-4-yl)butanoic acid trifluoroacetate], the IC50 in test [1] turned out to be 5600 nM; in test [2], 62 nM; in test [3], 2800 nM; in test [4], 940 nM.
On the same counts, the results for `Cc1cc(C)n(-c2cccc(C(CC(=O)O)Cc3csc(CCc4ccc5c(n4)NCCC5)n3)c2)n1` (centres unmarked) [Example 38, 3-(3-(3,5-dimethyl-1H-pyrazol-1-yl)phenyl)-4-(2-(2-(5,6,7,8-tetrahydro-1,8-naphthyridin-2-yl)ethyl)thiazol-4-yl)butanoic acid] are 2700 nM, 0.7 nM, 420 nM and 9 nM.
On the same counts, the results for `CC(C)(C)c1cc(C(CC(=O)O)Cc2cc(OCCc3ccc4c(n3)NCCC4)n(CC(F)(F)F)n2)cc(C(C)(C)C)c1` (centres unmarked) [Example 40, 3-(3,5-di-tert-butylphenyl)-4-(5-(2-(5,6,7,8-tetrahydro-1,8-naphthyridin-2-yl)ethoxy)-1-(2,2,2-trifluoroethyl)-1H-pyrazol-3-yl)butanoic acid trifluoroacetate] are 30 nM, 180 nM, 6 nM and 740 nM.
Take `Cn1nc(CC(CC(=O)O)c2cc(C(C)(C)C#N)cc(C(C)(C)C#N)c2)cc1OCCc1ccc2c(n1)NCCC2` (centres unmarked) [Example 41, 3-(3,5-bis(2-cyanopropan-2-yl)phenyl)-4-(1-methyl-5-(2-(5,6,7,8-tetrahydro-1,8-naphthyridin-2-yl)ethoxy)-1H-pyrazol-3-yl)butanoic acid trifluoroacetate]: the IC50 is 1 nM in test [1], 5 nM in test [2], 0.3 nM in test [3] and 9 nM in test [4].
In the case of `COc1ccc(C2=CCOCC2)cc1C(CC(=O)O)Cc1cc(OCCc2ccc3c(n2)NCCC3)n(C)n1` (centres unmarked) [Example 42], the half-inhibitory concentration (IC50) in test [1] came to 41 nM; in test [2] it was 14 nM; in test [3], 10 nM; in test [4] it was 58 nM.
For `COc1ccc(C2CCOCC2)cc1C(CC(=O)O)Cc1csc(CCCc2ccc3c(n2)NCCC3)n1` (centres unmarked) [Example 43, 3-(2-methoxy-5-(tetrahydro-2H-pyran-4-yl)phenyl)-4-(2-(3-(5,6,7,8-tetrahydro-1,8-naphthyridin-2-yl)propyl)thiazol-4-yl)butanoic acid], in that order: 210 nM, 61 nM, 65 nM and 520 nM.
For `COc1ccc(C(CC(=O)O)Cc2cc(OCCc3ccc4c(n3)NCCC4)n(C)n2)cc1F` (centres unmarked) [Example 44, 3-(3-fluoro-4-methoxyphenyl)-4-(1-methyl-5-(2-(5,6,7,8-tetrahydro-1,8-naphthyridin-2-yl)ethoxy)-1H-pyrazol-3-yl)butanoic acid], in that order: 80 nM, 0.22 nM, 47 nM and 2.3 nM.
For `COCC1(c2ccc(OC)c(C(CC(=O)O)Cc3cc(OCCc4ccc5c(n4)NCCC5)n(C)n3)c2)CCOCC1` (centres unmarked) [Example 45, 3-(2-methoxy-5-(4-(methoxymethyl)tetrahydro-2H-pyran-4-yl)phenyl)-4-(1-methyl-5-(2-(5,6,7,8-tetrahydro-1,8-naphthyridin-2-yl)ethoxy)-1H-pyrazol-3-yl)butanoic acid], in that order: 1000 nM, 1200 nM, 13 nM and 1200 nM.
For `COc1ccc(C2CCOCC2)cc1C(CC(=O)O)Cc1cc(OCCc2ccc3c(n2)NCCC3)n(C)n1` (centres unmarked) [Example 46, 3-(2-methoxy-5-(tetrahydro-2H-pyran-4-yl)phenyl)-4-(1-methyl-5-(2-(5,6,7,8-tetrahydro-1,8-naphthyridin-2-yl)ethoxy)-1H-pyrazol-3-yl)butanoic acid], the 50% inhibitory concentration (IC50) in test [1] was 250 nM; in test [2] it was 87 nM; in test [3] it was 16 nM; in test [4], 310 nM.
For `Cn1nc(C[C@@H](CC(=O)O)c2cc3c(c(C(C)(C)C)c2)OCO3)cc1OCCc1ccc2c(n1)NCCC2` [Example 47], in that order: 34 nM, 0.067 nM, 6.2 nM and 1.8 nM.
For `COCC1(c2ccc(OC)c([C@H](CC(=O)O)Cc3cc(OCCc4ccc5c(n4)NCCC5)n(C)n3)c2)CCOCC1` [Example 48, (S)-3-(2-methoxy-5-(4-(methoxymethyl)tetrahydro-2H-pyran-4-yl)phenyl)-4-(1-methyl-5-(2-(5,6,7,8-tetrahydro-1,8-naphthyridin-2-yl)ethoxy)-1H-pyrazol-3-yl)butanoic acid], in that order: 540 nM, 770 nM, 9.7 nM and 690 nM.

Source of the values: patent US20210284638A1 (Saint Louis University, priority 2018, published 2021).
